According to PMC5218480 (PLoS ONE, 2017):

Test system: MV-4-11 cells
Test: Gene expression microarray analysis (Affymetrix PrimeView) and GSEA
Type: cell-based, human
Parameters: RFU PODN (11730768_x_at) / Fold change /veh PODN (11730768_x_at) / RFU LINC00158 (11744669_a_at) / Fold change /veh LINC00158 (11744669_a_at) / RFU DUSP10 (11751237_a_at) / Fold change /veh DUSP10 (11751237_a_at) / RFU ID3 (11757404_x_at) / Fold change /veh ID3 (11757404_x_at) / RFU PLEKHG5 (11737974_s_at) / Fold change /veh PLEKHG5 (11737974_s_at) / RFU LRRC4B (11730491_at) / Fold change /veh LRRC4B (11730491_at) / RFU GIMAP4 (11747438_a_at) / Fold change /veh GIMAP4 (11747438_a_at) / RFU KRT8 (11758183_x_at) / Fold change /veh KRT8 (11758183_x_at) / RFU CNN1 (11734310_a_at) / Fold change /veh CNN1 (11734310_a_at) / RFU VPS37D (11726825_at) / Fold change /veh VPS37D (11726825_at) / RFU C10orf10 (11716522_x_at) / Fold change /veh C10orf10 (11716522_x_at) / RFU KIR2DL2 /// KIR2DL4 /// KIR2DL5A /// KIR2DL5B /// KIR2DS1 /// KIR2DS2 /// KIR2DS3 /// KIR2DS4 /// KIR3DL3 /// KIR3DL3 /// KIR3DS1 (11738374_at) / Fold change /veh KIR2DL2 /// KIR2DL4 /// KIR2DL5A /// KIR2DL5B /// KIR2DS1 /// KIR2DS2 /// KIR2DS3 /// KIR2DS4 /// KIR3DL3 /// KIR3DL3 /// KIR3DS1 (11738374_at) / RFU C1QL1 (11718748_at) / Fold change /veh C1QL1 (11718748_at) / RFU TMPRSS4 (11747572_a_at) / Fold change /veh TMPRSS4 (11747572_a_at) / RFU HAMP (11756126_x_at) / Fold change /veh HAMP (11756126_x_at) / RFU RNFT2 (11725882_a_at) / Fold change /veh RNFT2 (11725882_a_at) / RFU NR4A2 (11747474_a_at) / Fold change /veh NR4A2 (11747474_a_at) / RFU ABCC12 (11746883_a_at) / Fold change /veh ABCC12 (11746883_a_at) / RFU TMEM136 (11760407_x_at) / Fold change /veh TMEM136 (11760407_x_at) / RFU CLDN22 /// WWC2 (11732394_at) / Fold change /veh CLDN22 /// WWC2 (11732394_at) / RFU HLA-DPB1 (11760878_x_at) / Fold change /veh HLA-DPB1 (11760878_x_at) / RFU SPINT1 (11716480_a_at) / Fold change /veh SPINT1 (11716480_a_at) / RFU GAP43 (11754022_s_at) / Fold change /veh GAP43 (11754022_s_at) / RFU A4GNT (11735810_at) / Fold change /veh A4GNT (11735810_at) / RFU PRB3 (11715151_x_at) / Fold change /veh PRB3 (11715151_x_at) / RFU TUBB4B (11761932_at) / Fold change /veh TUBB4B (11761932_at) / RFU CAPN14 (11732068_a_at) / Fold change /veh CAPN14 (11732068_a_at) / RFU TMCC2 (11721928_a_at) / Fold change /veh TMCC2 (11721928_a_at) / RFU IRGQ (11745062_a_at) / Fold change /veh IRGQ (11745062_a_at) / RFU FAM174B (11720279_a_at) / Fold change /veh FAM174B (11720279_a_at) / RFU TMPRSS4 (11748680_a_at) / Fold change /veh TMPRSS4 (11748680_a_at) / RFU FAM212B (11763350_a_at) / Fold change /veh FAM212B (11763350_a_at) / RFU PLEKHG5 (11743358_a_at) / Fold change /veh PLEKHG5 (11743358_a_at) / RFU ZSCAN30 (11745921_a_at) / Fold change /veh ZSCAN30 (11745921_a_at) / RFU CMKLR1 (11741424_a_at) / Fold change /veh CMKLR1 (11741424_a_at) / RFU LOC101060620 /// MAPK8IP1 (11723275_at) / Fold change /veh LOC101060620 /// MAPK8IP1 (11723275_at) / RFU SPTSSB (11747773_x_at) / Fold change /veh SPTSSB (11747773_x_at) / RFU PRSS12 (11739890_at) / Fold change /veh PRSS12 (11739890_at) / RFU BIN1 (11741810_x_at) / Fold change /veh BIN1 (11741810_x_at) / RFU WNT11 (11732464_a_at) / Fold change /veh WNT11 (11732464_a_at) / RFU C10orf10 (11716521_a_at) / Fold change /veh C10orf10 (11716521_a_at) / RFU C5orf56 (11738089_at) / Fold change /veh C5orf56 (11738089_at) / RFU CYB561 (11721691_x_at) / Fold change /veh CYB561 (11721691_x_at) / RFU ANKRD19P (11752326_a_at) / Fold change /veh ANKRD19P (11752326_a_at) / RFU OR2T12 /// OR2T33 /// OR2T8 (11738714_s_at) / Fold change /veh OR2T12 /// OR2T33 /// OR2T8 (11738714_s_at) / RFU VCAN (11748164_a_at) / Fold change /veh VCAN (11748164_a_at) / RFU JSRP1 (11732532_at) / Fold change /veh JSRP1 (11732532_at) / RFU KRTAP10-11 (11738290_x_at) / Fold change /veh KRTAP10-11 (11738290_x_at) / RFU MYO3A (11730013_a_at) / Fold change /veh MYO3A (11730013_a_at) / RFU EBF3 (11725865_a_at) / Fold change /veh EBF3 (11725865_a_at) / RFU CAMK2N1 (11719241_x_at) / Fold change /veh CAMK2N1 (11719241_x_at) / RFU C5orf56 (11738088_a_at) / Fold change /veh C5orf56 (11738088_a_at) / RFU OLFML3 (11715873_a_at) / Fold change /veh OLFML3 (11715873_a_at) / RFU LOC100653217 /// NTM (11731650_a_at) / Fold change /veh LOC100653217 /// NTM (11731650_a_at) / RFU MAPK11 (11762145_a_at) / Fold change /veh MAPK11 (11762145_a_at) / RFU FIZ1 (11724087_x_at) / Fold change /veh FIZ1 (11724087_x_at) / RFU OASL (11726364_x_at) / Fold change /veh OASL (11726364_x_at) / RFU SOX15 (11748057_x_at) / Fold change /veh SOX15 (11748057_x_at) / RFU CD79A (11719716_a_at) / Fold change /veh CD79A (11719716_a_at) / RFU HIST1H1D (11736915_at) / Fold change /veh HIST1H1D (11736915_at) / RFU CASKIN2 (11723855_a_at) / Fold change /veh CASKIN2 (11723855_a_at) / RFU LOC730098 (11760151_x_at) / Fold change /veh LOC730098 (11760151_x_at) / RFU OR4N2 (11742367_at) / Fold change /veh OR4N2 (11742367_at) / RFU PRRT2 (11749266_a_at) / Fold change /veh PRRT2 (11749266_a_at) / RFU SNX32 (11753110_a_at) / Fold change /veh SNX32 (11753110_a_at) / RFU CDHR5 (11726645_a_at) / Fold change /veh CDHR5 (11726645_a_at) / RFU RCAN1 (11760418_a_at) / Fold change /veh RCAN1 (11760418_a_at) / RFU FAM167A (11723789_a_at) / Fold change /veh FAM167A (11723789_a_at) / RFU FAM26E (11764081_at) / Fold change /veh FAM26E (11764081_at) / RFU ISYNA1 (11749810_s_at) / Fold change /veh ISYNA1 (11749810_s_at) / RFU ACY1 (11761880_at) / Fold change /veh ACY1 (11761880_at) / RFU 11764098_at / Fold change /veh 11764098_at / RFU SAMD14 (11745864_x_at) / Fold change /veh SAMD14 (11745864_x_at) / RFU NPB (11741838_a_at) / Fold change /veh NPB (11741838_a_at) / RFU TMPRSS6 (11731388_a_at) / Fold change /veh TMPRSS6 (11731388_a_at) / RFU KRTAP10-2 (11738614_at) / Fold change /veh KRTAP10-2 (11738614_at) / RFU ARHGAP8 /// PRR5-ARHGAP8 (11727945_x_at) / Fold change /veh ARHGAP8 /// PRR5-ARHGAP8 (11727945_x_at) / RFU KRTAP5-7 /// NADSYN1 (11734609_at) / Fold change /veh KRTAP5-7 /// NADSYN1 (11734609_at) / RFU RASL12 (11751679_a_at) / Fold change /veh RASL12 (11751679_a_at) / RFU CDKN2B (11736163_a_at) / Fold change /veh CDKN2B (11736163_a_at) / RFU PRF1 (11729649_at) / Fold change /veh PRF1 (11729649_at) / RFU, ZNF638 /// ZNF638-IT1 / Fold change vs veh, ZNF638 /// ZNF638-IT1 / RFU, PANK3 / Fold change vs veh, PANK3 / RFU, SH3YL1 / Fold change vs veh, SH3YL1 / RFU, ZEB2 / Fold change vs veh, ZEB2 / RFU, NRIP1 / Fold change vs veh, NRIP1 / RFU, PTTG1IP / Fold change vs veh, PTTG1IP / RFU, CAPN2 / Fold change vs veh, CAPN2 / RFU, MED14 / Fold change vs veh, MED14 / RFU, SNORA58 / Fold change vs veh, SNORA58 / RFU, C1orf63 / Fold change vs veh, C1orf63 / RFU, LRRFIP1 / Fold change vs veh, LRRFIP1 / RFU, NDUFAF7 / Fold change vs veh, NDUFAF7 / RFU, SLC12A2 / Fold change vs veh, SLC12A2 / RFU, IBTK / Fold change vs veh, IBTK / RFU, ESF1 / Fold change vs veh, ESF1 / Fold change vs veh, TMEM50B / RFU, TAOK1 / Fold change vs veh, TAOK1 / RFU, ACBD3 / Fold change vs veh, ACBD3 / RFU, TMA16 / Fold change vs veh, TMA16 / RFU, RWDD3 / Fold change vs veh, RWDD3 / RFU, BCAT1 / Fold change vs veh, BCAT1 / RFU, EDEM3 / Fold change vs veh, EDEM3 / RFU, TMEM33 / Fold change vs veh, TMEM33 / RFU, WDR75 / Fold change vs veh, WDR75 / RFU, AHCTF1 / Fold change vs veh, AHCTF1 / RFU, TFRC / Fold change vs veh, TFRC / RFU, ZDHHC17 / Fold change vs veh, ZDHHC17 / RFU, NOM1 / Fold change vs veh, NOM1 / RFU, ARL8B / Fold change vs veh, ARL8B / RFU, ZBTB11 / Fold change vs veh, ZBTB11 / RFU, TAMM41 / Fold change vs veh, TAMM41 / RFU, KIAA1704 /// LOC100996395 / Fold change vs veh, KIAA1704 /// LOC100996395 / RFU, ING1 / Fold change vs veh, ING1 / RFU, TRMT61B / Fold change vs veh, TRMT61B / RFU, FUBP3 / Fold change vs veh, FUBP3 / RFU, TP53 / Fold change vs veh, TP53 / RFU, TNKS2 / Fold change vs veh, TNKS2 / RFU, ZFP14 / Fold change vs veh, ZFP14 / RFU, ACTR2 / Fold change vs veh, ACTR2 / RFU, PPP3R1 / Fold change vs veh, PPP3R1 / RFU, PIK3R1 / Fold change vs veh, PIK3R1 / RFU, HNRNPA1 / Fold change vs veh, HNRNPA1 / RFU, RNF170 / Fold change vs veh, RNF170 / RFU, ZNF28 / Fold change vs veh, ZNF28 / RFU, RNGTT / Fold change vs veh, RNGTT / RFU, OGT / Fold change vs veh, OGT / RFU, BRD1 / Fold change vs veh, BRD1 / RFU, MARS / Fold change vs veh, MARS / RFU, ZNF655 / Fold change vs veh, ZNF655 / RFU, FAHD1 / Fold change vs veh, FAHD1 / RFU, BDP1 / Fold change vs veh, BDP1 / RFU, LRRCC1 / Fold change vs veh, LRRCC1 / RFU, ARID1A / Fold change vs veh, ARID1A / RFU, ZNF146 / Fold change vs veh, ZNF146 / RFU, ZNF330 / Fold change vs veh, ZNF330 / RFU, GPN3 / Fold change vs veh, GPN3 / RFU, C9orf123 / Fold change vs veh, C9orf123 / RFU, N4BP2L2 / Fold change vs veh, N4BP2L2 / RFU, ARFIP1 / Fold change vs veh, ARFIP1 / RFU, FAM179B / Fold change vs veh, FAM179B / RFU, BCL10 / Fold change vs veh, BCL10 / RFU, UHRF1BP1L / Fold change vs veh, UHRF1BP1L / RFU, BET1 / Fold change vs veh, BET1 / RFU, CNOT2 / Fold change vs veh, CNOT2 / RFU, ZNF268 / Fold change vs veh, ZNF268 / Fold change vs veh, ZNF507 / RFU, DGCR2 / Fold change vs veh, DGCR2 / RFU, WDSUB1 / Fold change vs veh, WDSUB1 / Fold change vs veh, HSP90B1 /// MIR3652 / RFU, ADSS / Fold change vs veh, ADSS / RFU, GK / Fold change vs veh, GK / RFU, ZNF148 / Fold change vs veh, ZNF148 / RFU, TAF9 / Fold change vs veh, TAF9 / RFU, SLC1A5 / Fold change vs veh, SLC1A5 / RFU, SLMO2 / Fold change vs veh, SLMO2 / RFU, ABCC4 / Fold change vs veh, ABCC4 / RFU, LOC101060439 /// RAP1B / Fold change vs veh, LOC101060439 /// RAP1B / RFU, RFX7 / Fold change vs veh, RFX7 / RFU, GTPBP10 / Fold change vs veh, GTPBP10 / RFU, CNEP1R1 / Fold change vs veh, CNEP1R1 / RFU, BIVM-ERCC5 /// ERCC5 / Fold change vs veh, BIVM-ERCC5 /// ERCC5 / RFU, ILF3 / Fold change vs veh, ILF3 / RFU 11762660_at / Fold change /veh 11762660_at / RFU VCAN (11757783_s_at) / Fold change /veh VCAN (11757783_s_at) / RFU DDX43 (11728927_at) / Fold change /veh DDX43 (11728927_at) / RFU KRT8 (11758188_x_at) / Fold change /veh KRT8 (11758188_x_at) / RFU NKD1 (11759106_at) / Fold change /veh NKD1 (11759106_at) / RFU SRD5A1 (11742802_a_at) / Fold change /veh SRD5A1 (11742802_a_at) / RFU TPSAB1 /// TPSB2 (11721975_s_at) / Fold change /veh TPSAB1 /// TPSB2 (11721975_s_at) / RFU GSTM3 (11746129_a_at) / Fold change /veh GSTM3 (11746129_a_at) / RFU IL23R (11737362_x_at) / Fold change /veh IL23R (11737362_x_at) / RFU TMEM51 (11727254_a_at) / Fold change /veh TMEM51 (11727254_a_at) / RFU PIWIL2 (11732686_x_at) / Fold change /veh PIWIL2 (11732686_x_at) / RFU ORM1 (11744905_x_at) / Fold change /veh ORM1 (11744905_x_at) / RFU CCDC152 (11743942_at) / Fold change /veh CCDC152 (11743942_at) / RFU ECM1 (11717891_a_at) / Fold change /veh ECM1 (11717891_a_at) / RFU IL23R (11748794_a_at) / Fold change /veh IL23R (11748794_a_at) / RFU TNFAIP8L3 (11732012_x_at) / Fold change /veh TNFAIP8L3 (11732012_x_at) / RFU MBOAT4 (11741988_at) / Fold change /veh MBOAT4 (11741988_at) / RFU 11764193_at / Fold change /veh 11764193_at / RFU TMEM53 (11763286_at) / Fold change /veh TMEM53 (11763286_at) / RFU MAGEB2 (11727129_at) / Fold change /veh MAGEB2 (11727129_at) / RFU TMEM200A (11744735_a_at) / Fold change /veh TMEM200A (11744735_a_at) / RFU CCDC152 (11751479_a_at) / Fold change /veh CCDC152 (11751479_a_at) / RFU FAM211A (11726209_a_at) / Fold change /veh FAM211A (11726209_a_at) / RFU RGS16 (11746705_a_at) / Fold change /veh RGS16 (11746705_a_at) / RFU VCAN (11755009_s_at) / Fold change /veh VCAN (11755009_s_at) / RFU RHOB (11743442_s_at) / Fold change /veh RHOB (11743442_s_at) / RFU RGS16 (11720943_a_at) / Fold change /veh RGS16 (11720943_a_at) / RFU RGS16 (11720944_at) / Fold change /veh RGS16 (11720944_at) / RFU, VPS4B / Fold change vs veh, VPS4B / RFU, CREB1 / Fold change vs veh, CREB1 / RFU, DNAJC13 / Fold change vs veh, DNAJC13 / RFU, GNAQ / Fold change vs veh, GNAQ / RFU, CDK5R1 / Fold change vs veh, CDK5R1 / RFU, ZRANB3 / Fold change vs veh, ZRANB3 / RFU, CUL4A / Fold change vs veh, CUL4A / RFU, CCNY / Fold change vs veh, CCNY / RFU, UFL1 / Fold change vs veh, UFL1 / RFU, COG3 / Fold change vs veh, COG3 / RFU, DIAPH2 / Fold change vs veh, DIAPH2 / RFU, SKA2 / Fold change vs veh, SKA2 / RFU, AFF3 / Fold change vs veh, AFF3 / RFU, LMF1 / Fold change vs veh, LMF1 / RFU, IPO11 / Fold change vs veh, IPO11 / RFU, DFFB / Fold change vs veh, DFFB / RFU, FOXP1 / Fold change vs veh, FOXP1 / RFU, CARD8 / Fold change vs veh, CARD8 / RFU, STRN3 / Fold change vs veh, STRN3 / RFU, ADK / Fold change vs veh, ADK / RFU, RASSF2 / Fold change vs veh, RASSF2 / RFU, WIPF1 / Fold change vs veh, WIPF1 / RFU, LARP1B / Fold change vs veh, LARP1B / RFU, RASA1 / Fold change vs veh, RASA1 / RFU, RB1 / Fold change vs veh, RB1 / RFU, PPFIA1 / Fold change vs veh, PPFIA1 / RFU, MAT2A / Fold change vs veh, MAT2A / RFU, CCT5 / Fold change vs veh, CCT5 / RFU, WDR92 / Fold change vs veh, WDR92 / RFU, CUX1 / Fold change vs veh, CUX1 / RFU, TTC7A / Fold change vs veh, TTC7A / RFU, TMEM135 / Fold change vs veh, TMEM135 / RFU, DEPTOR / Fold change vs veh, DEPTOR / RFU, CPM / Fold change vs veh, CPM / RFU, DNAJB6 / Fold change vs veh, DNAJB6 / RFU, CACNA2D3 / Fold change vs veh, CACNA2D3 / RFU, DTX4 / Fold change vs veh, DTX4 / RFU, TFCP2 / Fold change vs veh, TFCP2 / RFU, GMCL1 /// GMCL1P1 / Fold change vs veh, GMCL1 /// GMCL1P1 / RFU, AEBP2 / Fold change vs veh, AEBP2 / RFU, SNHG1 /// SNORD22 /// SNORD25 /// SNORD26 /// SNORD27 /// SNORD28 /// SNORD29 /// SNORD31 / Fold change vs veh, SNHG1 /// SNORD22 /// SNORD25 /// SNORD26 /// SNORD27 /// SNORD28 /// SNORD29 /// SNORD31 / Fold change (Aza/veh), C12orf56 (ProbeSet 11735607_a_at) / Fold change (ACY-1035/veh), C12orf56 (ProbeSet 11735607_a_at) / Fold change (Aza/veh), FGFR1OP (ProbeSet 11751329_s_at) / Fold change (ACY-1035/veh), FGFR1OP (ProbeSet 11751329_s_at) / Fold change (Aza/veh), VPS36 (ProbeSet 11739960_a_at) / Fold change (ACY-1035/veh), VPS36 (ProbeSet 11739960_a_at) / RFU SYPL1 (11715823_x_at) / Fold change /veh SYPL1 (11715823_x_at) / RFU IGFBP7 (11715501_s_at) / Fold change /veh IGFBP7 (11715501_s_at) / RFU REEP3 (11722064_at) / Fold change /veh REEP3 (11722064_at) / RFU IGLL1 (11728026_x_at) / Fold change /veh IGLL1 (11728026_x_at): dose or concentration left out as unconfirmed
Details: ProbeSet 11750457_a_at; LIST B

Nc1ccc(-c2cccs2)cc1NC(=O)c1ccc2c(c1)cc(C1CC1)n2CCN1CCOCC1 [ACY-1035]
Fold change vs veh, GTPBP10: 0.84
